In US7326540B2, “Methods for identifying compounds that modulate stabilization of secretase-associated proteins” (priority 2003, dated 2008):
Where a SMILES comes first, the peptide text is derived from it. The star is where a group is joined. Cbz = O=C(OCc1ccccc1)*; CH2F = FC*

Legend:
E-cadherin = E-cadherin proteolysis in A431 cells during STS-induced apoptosis (Western blot, C36 antibody); type: cell-based, human; conditions: zVAD-FMK 100 μM pre-incubated 30 min, then STS 6 hours
Protocol: FIG. 11 provides digitized images and graphs showing that apoptosis enhances γ-secretase activity and levels of γ-secretase complex proteins. FIG. 11a: Apoptosis was induced in CAB, CHO-CC99/PS1 and CHO-APP 751/PS1 by STS treatment for 6 hours with or without zVAD (100 μM). Secreted Aβ1−total was measured by ELISA. […] Each bar represents the mean and SD of quadruplicate determinations. FIG. 11b: Western blot analysis with the antibody, A8717, detected endogenous APP-FL and overexpressed C99 in CHO-CC99/PS1cells, while overexpressed APP-FL and C83 were detected in CHO-APP751/PS1 cells. FIG. 11c: A431 human epithelial cells were pre-incubated for 30 min in the absence (−) or presence (+) of zVAD-FMK (100 μM), L-685,458 (0.5 μM) or GM6001 (2.5 μM). Cells were then treated with STS for 6 hours to induce apoptosis, and cell extracts were probed with anti-E-cadherin C36 antibody. FIG. 11d: Protein levels of γ-secretase complex components were monitored by Western blotting employing the anti-nicastrin, Ab14, PNT2, H2D2 antibodies. Densitometry analysis was performed using NIH image software. Each bar represents the mean and SEM of at least three experiments. FIG. 11e: Nicastrin was transiently transfected in the A431 cells. Western blot analysis for E-cadherin and γ-secretase complex component was performed as in FIG. 11c and FIG. 11d β-tubulin was used as loading control.
To confirm that apoptosis/caspase activation increases γ-secretase activity, we next examined the proteolysis of E-cadherin, another γ-secretase substrate (Marambaud, P. et al., Embo J21, 1948-56 (2002)) during apoptosis. We confirmed that caspase activation enhanced the production of E-Cad/CTF1 (Steinhusen, U. et al., J Biol Chem 276, 4972-80 (2001)), E-Cad/CTF2 (Marambaud, P. et al., 2002) (˜2- and 3-fold increase by densitometry analysis, respectively), and generated E-Cad/CTF3 (Marambaud, P. et al., 2002) (FIG. 11c). […]

[1] = test system: CHO cells overexpressing APP751 and PS1 WT; test: Induction of apoptosis (caspase 3 activation, TUNEL); type: cell-based, Chinese Hamster; conditions: STS 1 μM, after 6 hrs
β-secretase = test: C99 levels by Western blot (WO2) in CAB cells; type: cell-based, Chinese Hamster; conditions: STS-induced apoptosis, CHO cells expressing APP751 and BACE (CAB)
Protocol: (§1) Chinese Hamster Ovary (CHO) cells expressing APP751 and BACE (CAB), CHO cells expressing full-length APP and wild-type PS1 (CHO-APP751/PS1) or expressing C99 and wild-type PS1 (CHO-CC99/PS1), H4 human neuroglioma cells expressing APP751 (H4-APP751), mouse embryonic fibroblast (MEF), embryonic stem (ES) cells, and human epithelial A431 cells were grown as described previously (Marambaud, P. et al., Embo J 21, 1948-56 (2002); Cai, H. et al., Nat Neurosci 4, 233-4 (2001); Sato, N. et al., Nat Cell Biol 2, 863-70 (2000); Puglielli, L., Ellis, B. C., Saunders, A. J. & Kovacs, D. M., J Biol Chem 278, 19777-83 (2003); Wolfe, M. S. et al., Nature 398, 513-7 (1999)). For the induction of apoptosis, we used staurosporine or etoposide (Calbiochem (EMD Biosciences, San Diego, Calif.)). For Aβ measurements, cells were seeded at the density of 0.5×10^6 cells per well in 6 well plates. After 48 hours, cells were treated with either STS (1 μM) for 6 hours. In order to inhibit caspase activation a sister plate of cells was pre-treated with zVAD (1001M, Enzyme Systems Products) for 1 hour before STS treatment. For time-course experiments, cells were seeded at the density of 2×10^6 cells per 100 mm dish and treated with STS (1 μM) or etoposide (100 μg/mL). At different time points (0, 3, 6, 9, 12 and 24 hours), the cells were scraped, centrifuged and then lysed in buffer containing 1% NP40. […]

γ-secretase = test: Secreted Aβ1-total ELISA in CHO-CC99/PS1 cells; type: cell-based, Chinese Hamster; conditions: STS-treated CHO-CC99/PS1 cells, 6 hours
Protocol: as §1, with “hours.” for “hours. In order to inhibit caspase activation a sister plate of cells was pre-treated with zVAD (1001M, Enzyme Systems Products) for 1 hour before STS treatment. For time-course experiments, cells were seeded at the density of 2×10^6 cells per 100 mm dish and treated with STS (1 μM) or etoposide (100 μg/mL). At different time points (0, 3, 6, 9, 12 and 24 hours), the cells were scraped, centrifuged and then lysed in buffer containing 1% NP40.”
Secreted Aβ1-total was measured in the conditioned media of untreated cells or of cells treated with STS or STS plus zVAD using a sensitive ELISA (Wolfe, M. S. et al., Nature 398, 513-7 (1999). At least three different experiments were carried out and each experiment was performed at least in triplicate. […]

[2] = test system: γ-secretase complex proteins; test: γ-secretase complex protein levels by Western blot in A431 cells; type: cell-based, human; conditions: after 6 hours of STS treatment
Protocol: as §1

[3] = test system: γ-secretase complex proteins; test: γ-secretase complex protein levels by Western blot in CHO cell lines; type: cell-based, Chinese Hamster
Protocol: as §1

Row | SMILES | generation of E-Cad/CTF3 (E-cadherin) | Apoptosis (caspase 3 activated, TUNEL positive) [1] | levels of C99 (β-secretase) | Aβ1-total increase compared to untreated cells (γ-secretase) | immature nicastrin levels increase [2] | protein levels of PS1, Pen-2 and Aph1a [2] | nicastrin and Pen2 protein levels ([3]; STS treatment, CHO cells overexpressing APP751 and PS1WT and mouse fibroblasts) | endogenous nicastrin protein levels ([3]; six hours after STS treatment, CAB cells)
1 | COC(=O)C[C@H](NC(=O)[C@H](C)NC(=O)[C@@H](NC(=O)OCc1ccccc1)C(C)C)C(=O)CF [zVAD] (Cbz-Val-Ala-Asp(OMe)-CH2F) | inhibited | – | – | – | – | – | – | –
2 | CN[C@@H]1C[C@H]2O[C@@](C)([C@@H]1OC)n1c3ccccc3c3c4c(c5c6ccccc6n2c5c31)C(=O)NC4 [STS, staurosporine] | – | induced apoptosis | increased | ~1.5 fold | ~1.5 fold | unchanged | up-regulated | increase
